Results on 32 molecules are retold here after US9382197B2, “Substituted hydroxamic acids and uses thereof” (Millennium Pharmaceuticals, Inc., priority 2010, dated 2016).

The structures appear in SMILES notation. Some results are limits rather than exact numbers.

For one assay, the target named is T1, purified human HDAC6 (Homo sapiens, UniProt Q9UBN7).
T1 construct: purchased BPS Bioscience 5006
T1 sequence (Q9UBN7 1-1215): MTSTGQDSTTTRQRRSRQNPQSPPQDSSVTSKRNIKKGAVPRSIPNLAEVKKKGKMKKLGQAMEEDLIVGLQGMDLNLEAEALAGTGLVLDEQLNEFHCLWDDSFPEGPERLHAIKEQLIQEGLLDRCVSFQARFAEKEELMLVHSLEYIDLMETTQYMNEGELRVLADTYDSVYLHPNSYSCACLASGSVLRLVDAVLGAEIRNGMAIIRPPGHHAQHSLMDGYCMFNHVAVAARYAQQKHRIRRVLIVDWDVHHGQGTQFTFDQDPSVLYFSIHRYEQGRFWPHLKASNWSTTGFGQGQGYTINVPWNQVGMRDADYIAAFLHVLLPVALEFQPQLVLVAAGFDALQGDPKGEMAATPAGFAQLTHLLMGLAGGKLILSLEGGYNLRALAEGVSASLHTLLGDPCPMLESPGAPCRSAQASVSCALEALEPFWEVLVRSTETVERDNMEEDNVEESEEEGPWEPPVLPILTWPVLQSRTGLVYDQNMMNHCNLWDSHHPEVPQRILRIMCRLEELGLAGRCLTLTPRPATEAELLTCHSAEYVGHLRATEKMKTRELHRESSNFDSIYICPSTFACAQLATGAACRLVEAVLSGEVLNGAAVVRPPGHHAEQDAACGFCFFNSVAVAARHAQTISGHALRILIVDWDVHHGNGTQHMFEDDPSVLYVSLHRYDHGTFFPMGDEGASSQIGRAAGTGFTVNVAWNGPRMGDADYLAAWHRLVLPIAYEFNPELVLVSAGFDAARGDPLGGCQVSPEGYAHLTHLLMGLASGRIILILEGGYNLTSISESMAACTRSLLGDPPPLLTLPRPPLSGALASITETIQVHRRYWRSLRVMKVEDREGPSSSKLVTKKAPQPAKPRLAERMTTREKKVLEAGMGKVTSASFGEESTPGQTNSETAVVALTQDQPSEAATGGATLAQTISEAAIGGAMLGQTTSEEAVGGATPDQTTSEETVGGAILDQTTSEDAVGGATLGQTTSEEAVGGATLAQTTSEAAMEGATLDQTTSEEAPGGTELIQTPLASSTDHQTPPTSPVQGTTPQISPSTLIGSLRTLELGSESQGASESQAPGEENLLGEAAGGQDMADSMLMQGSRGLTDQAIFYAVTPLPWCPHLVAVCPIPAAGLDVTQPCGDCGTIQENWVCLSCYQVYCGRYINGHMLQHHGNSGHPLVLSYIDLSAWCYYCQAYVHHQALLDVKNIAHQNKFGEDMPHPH
Description: HDAC6 Enzyme Assay. To be noted: bin: greater than 500 nM and less than 1 μM (lower bound in nM, upper bound in μM). Format: biochemical. Put shortly:
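Purified human HDAC6 incubated 1 h at 30 °C with Ac-Arg-Gly-Lys(Ac)-AMC and compound; trichostatin A stop, trypsin release of AMC, fluorescence Ex 340/Em 460 nm. IC50 from concentration–response relative to DMSO.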
Regarding `CC(C)(C)C(NC(=O)c1ccc(C(F)(F)F)cc1)c1ccc(C(=O)NO)cc1` (centres unmarked) [Compound I-303, 4-(2,2-dimethyl-1-{[4-(trifluoromethyl)benzoyl]amino}propyl)-N-hydroxybenzamide], the IC50 (commonly the midpoint of a concentration-inhibition curve) was 500 to 1000 nM.

Turning to `CC(C)C(NC(=O)Cc1cccc(C(F)(F)F)c1)c1ccc(C(=O)NO)cc1` (centres unmarked) [Compound I-195, N-hydroxy-4-[2-methyl-1-({[3-(trifluoromethyl)phenyl]acetyl}amino)propyl]benzamide], the IC50 is 500 to 1000 nM.

Take `CC(NC(=O)c1ccc(C(F)(F)F)cc1)c1cccc(C(=O)NO)c1` (centres unmarked) [Compound I-151, N-hydroxy-3-(1-{[4-(trifluoromethyl)benzoyl]amino}ethyl)benzamide]: the IC50 was 500 to 1000 nM.

Take `C[C@@H](NC(=O)c1cccn1C)c1cccc(C(=O)NO)c1` [Compound I-271, N-((1R)-1-{3-[(hydroxyamino)carbonyl]phenyl}ethyl)-1-methyl-1H-pyrrole-2-carboxamide]: the IC50 lay in the range of 500 to 1000 nM.

The assay is the same for the next values; noted with them: bin: greater than 1 μM.
`CC(NC(=O)Cc1ccc2c(c1)OCO2)c1ccc(C(=O)NO)cc1` (centres unmarked) [Compound I-280, 4-{1-[(1,3-benzodioxol-5-ylacetyl)amino]ethyl}-N-hydroxybenzamide] gave an IC50 of over 1000 nM.

`CC(C)C(NC(=O)c1cc2ccccc2s1)c1cccc(C(=O)NO)c1` (centres unmarked) [Compound I-390, N-(1-{3-[(hydroxyamino)carbonyl]phenyl}-2-methylpropyl)-1-benzothiophene-2-carboxamide] yielded a 50% inhibitory concentration (IC50) of over 1000 nM.

For `CC(NC(=O)c1csc2ccccc12)c1ccc(C(=O)NO)cc1` (centres unmarked) [Compound I-244, N-(1-{4-[(hydroxyamino)carbonyl]phenyl}ethyl)-1-benzothiophene-3-carboxamide], the IC50 was over 1000 nM.

Regarding `CC(NC(=O)C1CCCC1)c1cccc(C(=O)NO)c1` (centres unmarked) [Compound I-311, 3-{1-[(cyclopentylcarbonyl)amino]ethyl}-N-hydroxybenzamide], the IC50 is over 1000 nM.

In turn, `COc1cc(C(=O)NO)ccc1C(C)NC(=O)c1cccn1C` (centres unmarked) [Compound I-481, N-(1-{4-[(hydroxyamino)carbonyl]-2-methoxyphenyl}ethyl)-1-methyl-1H-pyrrole-2-carboxamide] returned an IC50 of over 1000 nM.

With `Cc1cc(C(=O)NO)ccc1C(C)NC(=O)c1cccn1C` (centres unmarked) [Compound I-486, N-(1-{4-[(hydroxyamino)carbonyl]-2-methylphenyl}ethyl)-1-methyl-1H-pyrrole-2-carboxamide], the IC50 is over 1000 nM.

Consider `Cc1c(C(=O)N[C@H](C)c2cccc(C(=O)NO)c2)oc2ccccc12` [Compound I-169, N-((1R)-1-{3-[(hydroxyamino)carbonyl]phenyl}ethyl)-3-methyl-1-benzofuran-2-carboxamide], for which the IC50 was over 1000 nM.

The assay is the same for the next values; noted with them: purified human HDAC6, substrate Ac-Arg-Gly-Lys(Ac)-AMC, 1 hour at 30° C.; reported as bins.
In the case of `CC(NC(=O)Nc1ccc(Oc2ccccc2)cc1)c1ccc(C(=O)NO)cc1` (centres unmarked) [Compound I-20, N-hydroxy-4-[1-({[(4-phenoxyphenyl)amino]carbonyl}amino)ethyl]benzamide], the IC50 fell in the range of 100 to 500 nM.

In turn, `CC(NC(=O)C1(c2ccc(Cl)cc2)CCC1)c1ccc(C(=O)NO)cc1` (centres unmarked) [Compound I-110, 4-[1-({[1-(4-chlorophenyl)cyclobutyl]carbonyl}amino)ethyl]-N-hydroxybenzamide] displayed an IC50 of under 100 nM.

The molecule `CC(C)C(NC(=O)c1cccn1C)c1ccc(C(=O)NO)cc1` (centres unmarked) [Compound I-30, N-(1-{4-[(hydroxyamino)carbonyl]phenyl}-2-methylpropyl)-1-methyl-1H-pyrrole-2-carboxamide] registered an IC50 of under 100 nM.

In turn, `CC(NC(=O)c1ccc(-n2cccn2)cc1)c1ccc(C(=O)NO)cc1` (centres unmarked) [Compound I-185, N-(1-{4-[(hydroxyamino)carbonyl]phenyl}ethyl)-4-(1H-pyrazol-1-yl)benzamide] displayed an IC50 of under 100 nM.

Molecule `CC(NC(=O)C1CC=CCC1)c1ccc(C(=O)NO)cc1` (centres unmarked) [Compound I-348, 4-{1-[(cyclohex-3-en-1-ylcarbonyl)amino]ethyl}-N-hydroxybenzamide] registered an IC50 of under 100 nM.

For `C[C@@H](NC(=O)C1(C)CCCCC1)c1ccc(C(=O)NO)cc1` [Compound I-26, N-hydroxy-4-((1R)-1-{[(1-methylcyclohexyl)carbonyl]amino}ethyl)benzamide], the IC50 is under 100 nM.

The molecule `Cc1cccc(C(=O)NC(C)c2ccc(C(=O)NO)cc2)c1` (centres unmarked) [Compound I-295, N-(1-{4-[(hydroxyamino)carbonyl]phenyl}ethyl)-3-methylbenzamide] came in with an IC50 of under 100 nM.

Regarding `CC(NC(=O)c1csc2ccccc12)c1cccc(C(=O)NO)c1` (centres unmarked) [Compound I-117, N-(1-{3-[(hydroxyamino)carbonyl]phenyl}ethyl)-1-benzothiophene-3-carboxamide], the IC50 was 100 to 500 nM.

The molecule `CC(C)C(NC(=O)c1cccs1)c1ccc(C(=O)NO)cc1` (centres unmarked) [Compound I-112, N-(1-{4-[(hydroxyamino)carbonyl]phenyl}-2-methylpropyl)thiophene-2-carboxamide] had an IC50 of under 100 nM.

For the molecule `C[C@@H](NC(=O)c1cc2oc(-c3ccccc3)cc2n1C)c1ccc(C(=O)NO)cc1` [Compound I-5, N-((1R)-1-{4-[(hydroxyamino)carbonyl]phenyl}ethyl)-4-methyl-2-phenyl-4H-furo[3,2-b]pyrrole-5-carboxamide], the IC50 is under 100 nM.

The molecule `CC(NC(=O)C(C)(C)C)c1ccc(C(=O)NO)cc1` (centres unmarked) [Compound I-59, 4-{1-[(2,2-dimethylpropanoyl)amino]ethyl}-N-hydroxybenzamide] yielded an IC50 of under 100 nM.

In the case of `CC(NC(=O)c1cn2cc(Cl)ccc2n1)c1ccc(C(=O)NO)cc1` (centres unmarked) [Compound I-35, 6-chloro-N-(1-{4-[(hydroxyamino)carbonyl]phenyl}ethyl)imidazo[1,2-a]pyridine-2-carboxamide], the IC50 was under 100 nM.

Take `CC(C)[C@@H](NC(=O)c1cc2ccccc2o1)c1ccc(C(=O)NO)cc1` [Compound I-22, N-((1R)-1-{4-[(hydroxyamino)carbonyl]phenyl}-2-methylpropyl)-1-benzofuran-2-carboxamide]: the IC50 was under 100 nM.

`Cc1oc(-c2ccccc2)nc1CC(=O)NC(c1ccc(C(=O)NO)cc1)C(C)C` (centres unmarked) [Compound I-48, N-hydroxy-4-(2-methyl-1-{[(5-methyl-2-phenyl-1,3-oxazol-4-yl)acetyl]amino}propyl)benzamide]: the IC50 is 100 to 500 nM.

The molecule `C[C@@H](NC(=O)C(C)(C)C)c1ccc(C(=O)NO)cc1` [Compound I-73, 4-{(1R)-1-[(2,2-dimethylpropanoyl)amino]ethyl}-N-hydroxybenzamide] gave an IC50 of under 100 nM.

In the case of `COc1ccc(C(=O)NC(C)c2cccc(C(=O)NO)c2)cc1` (centres unmarked) [Compound I-202, N-hydroxy-3-{1-[(4-methoxybenzoyl)amino]ethyl}benzamide], the IC50 is 100 to 500 nM.

Take `C[C@H](NC(=O)c1cc2ccccc2n1C)c1cccc(C(=O)NO)c1` [Compound I-294, N-((1S)-1-{3-[(hydroxyamino)carbonyl]phenyl}ethyl)-1-methyl-1H-indole-2-carboxamide]: the IC50 was in the range of 100 to 500 nM.

`CC(NC(=O)Nc1ccc(F)c(F)c1)c1ccc(C(=O)NO)cc1` (centres unmarked) [Compound I-275, 4-[1-({[(3,4-difluorophenyl)amino]carbonyl}amino)ethyl]-N-hydroxybenzamide]: the IC50 is under 100 nM.

In turn, `CC(C)(C)c1ccc(C(=O)NC(c2ccc(C(=O)NO)cc2)C(C)(C)C)cc1` (centres unmarked) [Compound I-377, 4-tert-butyl-N-(1-{4-[(hydroxyamino)carbonyl]phenyl}-2,2-dimethylpropyl)benzamide] registered an IC50 of 100 to 500 nM.

In the case of `C[C@@H](NC(=O)Nc1c(F)cccc1F)c1ccc(C(=O)NO)cc1` [Compound I-518, 4-[(1R)-1-({[(2,6-difluorophenyl)amino]carbonyl}amino)ethyl]-N-hydroxybenzamide], the IC50 was under 100 nM.

Take `C[C@@H](NC(=O)c1cc2ccccc2n1C)c1ccc(C(=O)NO)cc1` [Compound I-115, N-((1R)-1-{4-[(hydroxyamino)carbonyl]phenyl}ethyl)-1-methyl-1H-indole-2-carboxamide]: the IC50 was under 100 nM.
